The record followed here is EP4467141A1, “PYRAZOLO-QUINOLINES AS SELECTIVE INHIBITORS OF GENOTOXIC STRESS-INDUCED IKK/NF- KB PATHWAYS FOR CANCER THERAPY” (Max-Delbrück-Centrum für Molekulare Medizin in der …, priority 2023, dated 2024).

Common to all, as to assay: Kinase panel study
What all share (assay type): biochemical
Common to all, as to conditions: read-out: Percentage of inhibition; for inhibition at 1 µM: 1000nM; for inhibition at 10 µM: 10000nM

For one test, the target named is T1, CDK1/cyclin B (Homo sapiens, UniProt P06493).
T1 construct: purchased Thermo Fisher Scientific
T1 sequence (P06493 whole entry): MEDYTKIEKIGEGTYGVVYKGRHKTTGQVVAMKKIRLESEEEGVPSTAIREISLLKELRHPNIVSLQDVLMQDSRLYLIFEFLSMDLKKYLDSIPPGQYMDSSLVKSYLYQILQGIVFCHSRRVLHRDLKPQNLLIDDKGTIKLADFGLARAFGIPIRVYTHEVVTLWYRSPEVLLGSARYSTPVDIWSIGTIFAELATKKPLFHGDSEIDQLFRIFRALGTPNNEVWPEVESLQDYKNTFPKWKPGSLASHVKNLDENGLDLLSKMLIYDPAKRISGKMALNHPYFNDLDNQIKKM
T1 sequence (P14635 whole entry partner): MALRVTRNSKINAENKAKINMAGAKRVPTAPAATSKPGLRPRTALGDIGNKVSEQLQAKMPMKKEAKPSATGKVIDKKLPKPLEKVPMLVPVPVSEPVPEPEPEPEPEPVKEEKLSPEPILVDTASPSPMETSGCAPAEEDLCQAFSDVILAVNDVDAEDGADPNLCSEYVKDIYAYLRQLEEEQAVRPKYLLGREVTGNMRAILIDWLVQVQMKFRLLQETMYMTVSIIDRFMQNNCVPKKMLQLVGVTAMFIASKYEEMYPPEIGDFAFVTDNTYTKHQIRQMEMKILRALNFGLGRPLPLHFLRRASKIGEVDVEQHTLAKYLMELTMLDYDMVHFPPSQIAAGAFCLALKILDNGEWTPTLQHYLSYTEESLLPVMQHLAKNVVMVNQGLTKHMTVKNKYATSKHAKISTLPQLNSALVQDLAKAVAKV
The method, boiled down:
(§1)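 Lead compounds and derivatives were profiled by ZLyte or Adapta in vitro kinase assays. Each value reports inhibition percentage at one of two concentrations, 1 µM or 10 µM.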

A further test addresses T2, ABL2 (Arg) (Homo sapiens, UniProt P42684).
T2 construct: purchased Thermo Fisher Scientific
An outline of the steps:
as §1

For the next test, the target named is T3, MAPK1 (ERK2) (Homo sapiens, UniProt P28482).
T3 construct: purchased Thermo Fisher Scientific
T3 sequence (P28482 whole entry): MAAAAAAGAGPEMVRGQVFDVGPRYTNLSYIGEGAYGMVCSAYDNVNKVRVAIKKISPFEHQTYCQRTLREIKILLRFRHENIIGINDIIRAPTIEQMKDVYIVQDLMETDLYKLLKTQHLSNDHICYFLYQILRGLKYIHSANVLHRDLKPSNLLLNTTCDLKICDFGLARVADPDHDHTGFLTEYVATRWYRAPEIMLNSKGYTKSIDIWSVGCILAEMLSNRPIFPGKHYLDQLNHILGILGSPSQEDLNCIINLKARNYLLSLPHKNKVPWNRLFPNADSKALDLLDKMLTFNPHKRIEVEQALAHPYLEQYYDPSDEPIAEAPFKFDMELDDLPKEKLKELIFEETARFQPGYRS
An outline of the steps:
as §1

In a further test the target is T4, PDGFRA (PDGFR alpha) (Homo sapiens, UniProt P16234).
T4 construct: purchased Thermo Fisher Scientific
T4 sequence (P16234 24-1089): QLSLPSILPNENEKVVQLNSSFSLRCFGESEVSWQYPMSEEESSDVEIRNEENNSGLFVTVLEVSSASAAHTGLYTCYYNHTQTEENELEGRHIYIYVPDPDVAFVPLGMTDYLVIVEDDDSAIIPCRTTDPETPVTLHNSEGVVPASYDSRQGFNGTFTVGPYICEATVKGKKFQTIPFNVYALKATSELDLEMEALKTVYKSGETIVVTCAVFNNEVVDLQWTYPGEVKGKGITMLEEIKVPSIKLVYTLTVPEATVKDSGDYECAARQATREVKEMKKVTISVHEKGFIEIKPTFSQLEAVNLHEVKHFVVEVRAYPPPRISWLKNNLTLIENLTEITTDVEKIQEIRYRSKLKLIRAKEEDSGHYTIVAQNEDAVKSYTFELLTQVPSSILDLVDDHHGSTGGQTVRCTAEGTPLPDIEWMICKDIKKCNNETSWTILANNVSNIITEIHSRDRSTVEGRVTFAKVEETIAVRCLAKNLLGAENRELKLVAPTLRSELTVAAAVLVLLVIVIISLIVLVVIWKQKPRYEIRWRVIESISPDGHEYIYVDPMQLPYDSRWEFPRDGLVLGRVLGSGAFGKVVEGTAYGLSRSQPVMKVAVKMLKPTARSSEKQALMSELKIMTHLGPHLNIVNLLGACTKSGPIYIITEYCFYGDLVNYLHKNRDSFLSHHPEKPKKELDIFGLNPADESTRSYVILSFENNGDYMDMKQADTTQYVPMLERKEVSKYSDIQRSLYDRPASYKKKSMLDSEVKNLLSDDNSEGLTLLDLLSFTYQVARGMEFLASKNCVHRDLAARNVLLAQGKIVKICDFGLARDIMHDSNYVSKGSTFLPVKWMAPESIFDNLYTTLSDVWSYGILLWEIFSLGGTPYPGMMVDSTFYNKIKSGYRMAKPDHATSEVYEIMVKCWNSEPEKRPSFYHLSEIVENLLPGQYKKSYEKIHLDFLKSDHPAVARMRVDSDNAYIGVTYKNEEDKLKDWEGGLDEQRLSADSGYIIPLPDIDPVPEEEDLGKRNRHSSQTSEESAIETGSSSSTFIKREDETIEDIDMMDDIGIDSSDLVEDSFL
The method, boiled down: as §1

For another test, the target named is T5, RET V804L (Homo sapiens, UniProt P07949, V804L).
T5 construct: purchased Thermo Fisher Scientific
T5 sequence (P07949 29-1114 V804L): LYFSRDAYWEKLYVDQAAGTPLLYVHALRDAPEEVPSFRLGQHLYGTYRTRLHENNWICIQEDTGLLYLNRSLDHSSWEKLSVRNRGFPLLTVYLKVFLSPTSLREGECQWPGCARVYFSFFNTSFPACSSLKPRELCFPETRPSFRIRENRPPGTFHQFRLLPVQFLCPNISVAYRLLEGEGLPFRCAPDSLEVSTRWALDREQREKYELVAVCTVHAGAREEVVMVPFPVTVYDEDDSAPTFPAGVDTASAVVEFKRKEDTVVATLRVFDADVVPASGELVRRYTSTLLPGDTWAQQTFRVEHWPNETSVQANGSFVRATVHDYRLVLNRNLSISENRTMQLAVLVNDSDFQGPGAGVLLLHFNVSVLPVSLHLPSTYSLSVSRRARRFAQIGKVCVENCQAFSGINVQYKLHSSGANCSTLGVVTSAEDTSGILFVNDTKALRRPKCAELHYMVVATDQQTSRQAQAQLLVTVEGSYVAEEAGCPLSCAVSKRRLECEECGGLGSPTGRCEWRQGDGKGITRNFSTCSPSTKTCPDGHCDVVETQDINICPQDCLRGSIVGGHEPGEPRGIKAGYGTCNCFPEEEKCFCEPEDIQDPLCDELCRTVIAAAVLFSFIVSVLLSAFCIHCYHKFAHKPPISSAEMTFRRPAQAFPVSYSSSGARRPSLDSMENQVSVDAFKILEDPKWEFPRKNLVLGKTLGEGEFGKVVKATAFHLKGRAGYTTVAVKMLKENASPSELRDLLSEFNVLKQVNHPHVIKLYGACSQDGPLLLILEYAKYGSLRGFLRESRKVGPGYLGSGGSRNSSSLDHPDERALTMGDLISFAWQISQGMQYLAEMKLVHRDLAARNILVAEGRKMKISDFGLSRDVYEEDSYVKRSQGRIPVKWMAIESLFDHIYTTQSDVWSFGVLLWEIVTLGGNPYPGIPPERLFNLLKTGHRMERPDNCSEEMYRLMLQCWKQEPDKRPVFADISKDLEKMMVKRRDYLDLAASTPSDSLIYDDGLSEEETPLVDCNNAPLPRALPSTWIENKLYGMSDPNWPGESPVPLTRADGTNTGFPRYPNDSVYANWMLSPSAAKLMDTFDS
An outline of the steps:
as §1

A further test has as its target T6, PRKG2 (PKG2) (Homo sapiens, UniProt Q13237).
T6 construct: purchased Thermo Fisher Scientific
T6 sequence (Q13237 1-762): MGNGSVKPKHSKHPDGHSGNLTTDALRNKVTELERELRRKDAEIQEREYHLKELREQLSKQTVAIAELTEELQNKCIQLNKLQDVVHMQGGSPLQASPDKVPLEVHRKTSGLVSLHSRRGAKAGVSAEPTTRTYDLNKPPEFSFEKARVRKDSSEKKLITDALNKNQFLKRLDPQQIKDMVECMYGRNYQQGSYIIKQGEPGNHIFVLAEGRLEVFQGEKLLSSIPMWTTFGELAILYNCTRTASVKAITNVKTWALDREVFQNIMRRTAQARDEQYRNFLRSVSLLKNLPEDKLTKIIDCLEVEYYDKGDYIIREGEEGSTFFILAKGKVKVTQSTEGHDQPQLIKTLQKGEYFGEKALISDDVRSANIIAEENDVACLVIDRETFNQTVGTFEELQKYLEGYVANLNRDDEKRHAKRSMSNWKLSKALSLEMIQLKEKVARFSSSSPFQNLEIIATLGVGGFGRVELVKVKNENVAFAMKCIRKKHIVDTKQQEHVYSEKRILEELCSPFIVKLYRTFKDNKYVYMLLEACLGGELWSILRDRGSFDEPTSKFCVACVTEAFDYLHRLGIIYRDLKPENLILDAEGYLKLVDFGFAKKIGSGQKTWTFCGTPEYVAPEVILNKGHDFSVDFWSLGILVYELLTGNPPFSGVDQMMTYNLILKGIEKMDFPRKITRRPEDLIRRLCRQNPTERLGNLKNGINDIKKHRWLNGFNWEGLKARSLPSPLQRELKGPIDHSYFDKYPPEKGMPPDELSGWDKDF
An outline of the steps: as §1

The target of another test is T7, CDK5/p25 (Homo sapiens, UniProt Q00535).
T7 construct: purchased Thermo Fisher Scientific
T7 sequence (Q00535 whole entry): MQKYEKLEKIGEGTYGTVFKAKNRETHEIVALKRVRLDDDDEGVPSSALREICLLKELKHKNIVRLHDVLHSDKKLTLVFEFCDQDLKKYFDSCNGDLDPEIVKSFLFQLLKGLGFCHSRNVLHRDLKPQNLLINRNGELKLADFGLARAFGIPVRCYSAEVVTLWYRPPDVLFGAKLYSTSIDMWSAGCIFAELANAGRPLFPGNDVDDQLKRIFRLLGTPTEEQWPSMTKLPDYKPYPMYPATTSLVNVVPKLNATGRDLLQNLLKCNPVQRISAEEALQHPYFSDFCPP
T7 sequence (Q15078 99-307 partner limits assumed): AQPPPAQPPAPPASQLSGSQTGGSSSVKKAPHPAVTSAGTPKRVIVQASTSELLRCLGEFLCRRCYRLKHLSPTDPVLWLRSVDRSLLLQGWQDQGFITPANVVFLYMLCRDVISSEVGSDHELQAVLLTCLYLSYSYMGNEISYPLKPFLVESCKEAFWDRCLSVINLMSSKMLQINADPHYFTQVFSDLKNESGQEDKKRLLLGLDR
The method, boiled down: as §1

In the next test the target is T8, FLT3 D835Y (Homo sapiens, UniProt P36888, D835Y).
T8 construct: purchased Thermo Fisher Scientific
T8 sequence (P36888 27-993 D835Y): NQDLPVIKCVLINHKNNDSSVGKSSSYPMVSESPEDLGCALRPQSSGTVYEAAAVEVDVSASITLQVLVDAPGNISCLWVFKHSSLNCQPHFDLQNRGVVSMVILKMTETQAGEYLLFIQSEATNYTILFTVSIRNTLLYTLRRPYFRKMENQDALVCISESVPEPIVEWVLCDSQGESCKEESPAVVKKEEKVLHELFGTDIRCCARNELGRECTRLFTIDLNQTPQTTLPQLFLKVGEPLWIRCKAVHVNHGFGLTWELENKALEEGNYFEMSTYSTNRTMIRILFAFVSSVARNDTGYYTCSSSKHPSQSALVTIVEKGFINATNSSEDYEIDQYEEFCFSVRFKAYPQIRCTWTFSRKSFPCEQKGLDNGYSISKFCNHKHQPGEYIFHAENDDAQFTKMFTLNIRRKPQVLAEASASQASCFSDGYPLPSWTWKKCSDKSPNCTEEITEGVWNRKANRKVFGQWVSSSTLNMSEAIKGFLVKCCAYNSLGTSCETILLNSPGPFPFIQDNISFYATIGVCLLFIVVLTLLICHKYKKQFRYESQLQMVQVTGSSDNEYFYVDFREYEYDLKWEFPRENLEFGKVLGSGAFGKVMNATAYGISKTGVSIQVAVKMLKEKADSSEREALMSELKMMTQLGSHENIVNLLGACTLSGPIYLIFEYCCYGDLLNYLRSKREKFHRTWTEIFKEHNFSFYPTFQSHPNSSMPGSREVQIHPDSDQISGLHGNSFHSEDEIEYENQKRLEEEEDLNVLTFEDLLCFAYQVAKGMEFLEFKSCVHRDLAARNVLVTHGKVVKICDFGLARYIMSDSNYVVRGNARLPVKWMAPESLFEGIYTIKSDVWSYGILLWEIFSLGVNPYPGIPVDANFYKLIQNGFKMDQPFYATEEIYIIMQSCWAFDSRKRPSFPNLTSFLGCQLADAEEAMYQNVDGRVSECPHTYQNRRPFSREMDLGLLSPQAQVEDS
An outline of the steps:
as §1

T2 sequence (P42684 whole entry): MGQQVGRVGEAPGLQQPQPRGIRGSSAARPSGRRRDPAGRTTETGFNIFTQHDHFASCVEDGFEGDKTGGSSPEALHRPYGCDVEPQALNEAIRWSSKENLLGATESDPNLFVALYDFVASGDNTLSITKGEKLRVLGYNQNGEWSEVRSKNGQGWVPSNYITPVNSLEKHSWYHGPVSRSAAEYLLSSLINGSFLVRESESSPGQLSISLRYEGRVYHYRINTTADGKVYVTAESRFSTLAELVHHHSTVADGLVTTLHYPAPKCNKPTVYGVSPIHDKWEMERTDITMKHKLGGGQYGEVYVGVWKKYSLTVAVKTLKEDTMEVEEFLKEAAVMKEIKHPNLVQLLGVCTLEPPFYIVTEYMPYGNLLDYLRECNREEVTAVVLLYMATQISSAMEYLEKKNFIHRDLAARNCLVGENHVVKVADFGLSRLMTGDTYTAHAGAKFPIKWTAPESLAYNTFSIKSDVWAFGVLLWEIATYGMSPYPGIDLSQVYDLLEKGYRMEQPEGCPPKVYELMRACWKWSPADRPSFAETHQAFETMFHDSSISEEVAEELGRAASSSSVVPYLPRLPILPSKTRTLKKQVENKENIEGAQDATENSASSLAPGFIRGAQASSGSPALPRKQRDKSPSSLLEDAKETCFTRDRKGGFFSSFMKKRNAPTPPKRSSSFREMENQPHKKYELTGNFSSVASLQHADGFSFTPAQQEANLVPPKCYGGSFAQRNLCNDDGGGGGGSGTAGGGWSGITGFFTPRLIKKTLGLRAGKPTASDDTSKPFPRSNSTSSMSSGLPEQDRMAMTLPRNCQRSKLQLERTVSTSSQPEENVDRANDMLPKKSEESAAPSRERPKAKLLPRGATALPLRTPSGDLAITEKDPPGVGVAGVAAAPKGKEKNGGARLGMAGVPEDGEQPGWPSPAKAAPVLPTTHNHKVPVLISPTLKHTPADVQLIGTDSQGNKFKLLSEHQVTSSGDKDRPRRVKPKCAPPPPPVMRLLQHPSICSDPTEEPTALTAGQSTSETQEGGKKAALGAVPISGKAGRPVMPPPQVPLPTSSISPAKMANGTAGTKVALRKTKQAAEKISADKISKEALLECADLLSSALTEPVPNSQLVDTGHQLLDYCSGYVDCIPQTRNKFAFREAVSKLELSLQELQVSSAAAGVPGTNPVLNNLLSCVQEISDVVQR

Usually inhibition stands for the share of the control response that was lost under treatment. Regarding `COc1ccc2c(c1OC)c(=O)n1c3ccc(O)cc3c3ccnc2c31` [MW01, 5-Hydroxy-10,11-dimethoxy-9H-benzo[c]indolo[3,2,1-ij][1,5]naphthyridin-9-one], the inhibition at 1 µM on CDK1/cyclin B was determined as 20%; at ABL2 (Arg), 9%; at MAPK1 (ERK2) it was 4%; at PDGFRA (PDGFR alpha), 20%; at RET V804L, 15%; at PRKG2 (PKG2) it was 47%. The values for the inhibition at 1 µM at CDK5/p25 and on FLT3 D835Y were 4% and 81%, respectively. Also, the inhibition at 10 µM at CDK1/cyclin B amounted to 46%; at ABL2 (Arg), 21%; at MAPK1 (ERK2), 9%; at PDGFRA (PDGFR alpha), 47%; at RET V804L, 38%; at PRKG2 (PKG2), 72%. The inhibition at 10 µM on CDK5/p25 amounted to 12%; on FLT3 D835Y it was 92%.

Take `COc1ccc2cc3c(N)nn(C(=O)c4cccc(N(C)C)c4)c3nc2c1` [MW05, (3-Amino-7-methoxypyrazolo[3,4-b]quinolin-1-yl)-[3-(dimethylamino)phenyl]methanone]: the inhibition at 1 µM on CDK1/cyclin B worked out at 19%; on ABL2 (Arg), 5%; on MAPK1 (ERK2), 5%; at PDGFRA (PDGFR alpha), 7%; at RET V804L it was 2%; on PRKG2 (PKG2) it was 7%. The figures for the inhibition at 1 µM at CDK5/p25 and on FLT3 D835Y were 4% and 10%, respectively. In addition, the inhibition at 10 µM on CDK1/cyclin B was 57%; on ABL2 (Arg), 2%; at MAPK1 (ERK2) it was 7%; at PDGFRA (PDGFR alpha), 6%; on RET V804L, 0%; at PRKG2 (PKG2) it was 0%. The inhibition at 10 µM worked out at 8% at CDK5/p25 and 15% on FLT3 D835Y.
